Assay results reported in US20260217708A1, “FUSED BENZAZEPINE DERIVATIVES FOR USE IN THE TREATMENT OF CANCER AND EPILEPSY” (UCB BIOPHARMA SRL, priority 2023, published 2026).

Assays:
system Xc^− [1] = biological target: T1, system Xc^− (Homo sapiens, UniProt Q9UPY5); assay: Cystine-induced glutamate release assay; assay type: cell-based; set-up: endogenous in cells; host or cells: H4 cells; details: H4 cells, sodium-free HEPES buffer, 50 μM L-Cystine, 2 hours, Amplex Red glutamate readout; read-out: pIC50 Cystine-induced glutamate release assay (converted)
T1 sequence (Q9UPY5 1-501): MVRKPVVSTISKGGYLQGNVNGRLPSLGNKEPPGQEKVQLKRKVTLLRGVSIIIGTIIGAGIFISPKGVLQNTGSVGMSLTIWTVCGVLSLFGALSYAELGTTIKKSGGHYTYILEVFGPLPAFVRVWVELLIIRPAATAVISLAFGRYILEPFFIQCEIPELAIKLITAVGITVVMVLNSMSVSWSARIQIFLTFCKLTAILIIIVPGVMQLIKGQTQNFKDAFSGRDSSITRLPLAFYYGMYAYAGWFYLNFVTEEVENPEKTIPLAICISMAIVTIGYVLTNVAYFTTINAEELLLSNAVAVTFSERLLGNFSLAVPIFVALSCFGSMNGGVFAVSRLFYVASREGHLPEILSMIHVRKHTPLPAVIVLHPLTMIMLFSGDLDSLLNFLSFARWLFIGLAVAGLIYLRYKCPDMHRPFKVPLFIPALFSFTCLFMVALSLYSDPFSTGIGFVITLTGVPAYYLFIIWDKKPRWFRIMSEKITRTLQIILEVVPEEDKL
T1 sequence (P08195 1-529 partner): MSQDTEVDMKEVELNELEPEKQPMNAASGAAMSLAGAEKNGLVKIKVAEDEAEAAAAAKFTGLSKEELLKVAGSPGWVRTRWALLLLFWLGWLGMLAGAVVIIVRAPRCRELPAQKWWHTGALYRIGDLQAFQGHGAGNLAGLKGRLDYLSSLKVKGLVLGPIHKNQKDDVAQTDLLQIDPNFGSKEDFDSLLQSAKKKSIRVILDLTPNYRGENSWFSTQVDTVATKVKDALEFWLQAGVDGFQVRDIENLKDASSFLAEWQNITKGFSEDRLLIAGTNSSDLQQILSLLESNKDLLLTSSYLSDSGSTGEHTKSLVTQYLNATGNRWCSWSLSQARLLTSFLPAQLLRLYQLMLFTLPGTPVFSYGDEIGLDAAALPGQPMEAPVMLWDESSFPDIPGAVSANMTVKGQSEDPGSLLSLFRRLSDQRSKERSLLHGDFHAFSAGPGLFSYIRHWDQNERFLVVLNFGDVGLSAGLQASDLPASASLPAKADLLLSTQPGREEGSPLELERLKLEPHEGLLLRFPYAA
Method in brief: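 H4 cells in sodium-free HEPES buffer (pH 7.4), 2 days after plating; glutamate release induced with 50 μM L-cystine plus compound (1% DMSO), 2 h at 37 °C. Supernatant glutamate measured by Amplex Red fluorescence; IC50/pIC50 derived between 1% DMSO and 50 μM erastin controls.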

system Xc^− [2] = biological target: T1, system Xc^−; assay: [^14C]L-Cystine uptake assay; assay type: cell-based; set-up: endogenous in cells; host or cells: H4 cells; details: H4 cells, sodium-free HEPES buffer, 0.5 μM L-[14C]Cystine and 4.5 μM L-Cystine, 1 hour at 37° C.; read-out: pIC50 [^14C] L-Cystine uptake assay (converted)
Method in brief: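 H4 cells at 5×10^4 cells/well in sodium-free HEPES buffer were preincubated 15 min with compounds (1% DMSO). Uptake of 0.5 μM [14C]L-cystine plus 4.5 μM unlabelled L-cystine ran 1 hour at 37° C on scintillating plates. IC50 was set between 1% DMSO and 50 μM Erastin controls and expressed as pIC50.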

| SMILES | IC50 (system Xc^− [1]) [nM] | IC50 (system Xc^− [2]) [nM] |
| --- | --- | --- |
| COc1nc(C)cc2c1-c1cc(C)nn1CC(=O)N2CC(=O)Nc1ccc(C(F)(F)F)cc1 [#104, 2-(14-methoxy-4,12-dimethyl-8-oxo-5,6,9,13-tetrazatricyclo[8.4.0.0^2,6]tetradeca-1(14),2,4,10,12-pentaen-9-yl)-N-[4-(trifluoromethyl)phenyl]acetamide] | 39.8 to 100 | 39.8 to 100 |
| Cc1cc2c(c(Cl)n1)-c1cc(C)nn1CC(=O)N2CC(=O)Nc1ccc(C(F)(F)F)cc1 [#105, 2-(14-chloro-4,12-dimethyl-8-oxo-5,6,9,13-tetrazatricyclo[8.4.0.0^2,6]tetradeca-1(14),2,4,10,12-pentaen-9-yl)-N-[4-(trifluoromethyl)phenyl]acetamide] | 39.8 to 100 | 39.8 to 100 |
| Cc1cc2c(c(F)n1)-c1cc(C)nn1CC(=O)N2CC(=O)Nc1ccc(C(F)(F)F)cc1 [#106, 2-(14-fluoro-4,12-dimethyl-8-oxo-5,6,9,13-tetrazatricyclo[8.4.0.0^2,6]tetradeca-1(10),2,4,11,13-pentaen-9-yl)-N-[4-(trifluoromethyl)phenyl]acetamide] | 39.8 to 100 | 100 to 501 |
| COc1cc2c(c(OC)n1)-c1cccnc1CC(=O)N2CC(=O)Nc1ccc(C(F)(F)F)cc1 [#108, 2-(3,5-dimethoxy-9-oxo-4,8,12-triazatricyclo[9.4.0.0^2,7]pentadeca-1(11),2,4,6,12,14-hexaen-8-yl)-N-[4-(trifluoromethyl)phenyl]acetamide] | 39.8 to 100 | < 15.8 |
| Cc1cc2c(c(F)n1)-c1ccnnc1CC(=O)N2CC(=O)Nc1ccc(C(F)(F)F)cc1 [#110, 2-(3-fluoro-5-methyl-9-oxo-4,8,12,13-tetrazatricyclo[9.4.0.0^2,7]pentadeca-1(11),2,4,6,12,14-hexaen-8-yl)-N-[4-(trifluoromethyl)phenyl]acetamide] | 100 to 501 | 39.8 to 100 |
| CC(=O)N(C)c1nc2c(s1)-c1ccccc1CC(=O)N2CC(=O)Nc1ccc(C(F)(F)F)cc1 [#118, 2-[2-[acetyl(methyl)amino]-5-oxo-6H-thiazolo[4,5-d][3]benzazepin-4-yl]-N-[4-(trifluoromethyl)phenyl]acetamide] | 100 to 501 | 39.8 to 100 |
| COCC1C(=O)N(CC(=O)Nc2ccc(C(F)(F)F)cc2)c2cc(C)nc(Cl)c2-c2ccccc21 (stereo not drawn) [#122, 2-[1-chloro-7-(methoxymethyl)-3-methyl-6-oxo-7H-pyrido[3,4-a][3]benzazepin-5-yl]-N-[4-(trifluoromethyl)phenyl]acetamide] | 100 to 501 | 39.8 to 100 |
| Cc1cc2c(c(F)n1)-c1c[nH]nc1CC(=O)N2CC(=O)Nc1ccc(C(F)(F)F)cc1 [#123, 2-(14-fluoro-12-methyl-8-oxo-4,5,9,13-tetrazatricyclo[8.4.0.0^2,6]tetradeca-1(10),2,5,11,13-pentaen-9-yl)-N-[4-(trifluoromethyl)phenyl]acetamide] | 100 to 501 | 39.8 to 100 |
| Cc1cc2c(c(C#N)n1)-c1cc(F)ccc1CC(=O)N2CC(=O)Nc1ccc(C(F)(F)F)cc1 [#127, 2-(1-cyano-10-fluoro-3-methyl-6-oxo-7H-pyrido[4,3-d][3]benzazepin-5-yl)-N-[4-(trifluoromethyl)phenyl]acetamide] | 39.8 to 100 | < 15.8 |

The next lines start with the values.

| IC50 (system Xc^− [1]) [nM] | IC50 (system Xc^− [2]) [nM] | SMILES |
| --- | --- | --- |
| 15.8 to 39.8 | < 15.8 | COC1C(=O)N(CC(=O)Nc2ccc(C(F)(F)F)cc2)c2cc(C)nc(Cl)c2-c2ccccc21 (stereo not drawn) [#107, 2-(1-chloro-7-methoxy-3-methyl-6-oxo-7H-pyrido[3,4-a][3]benzazepin-5-yl)-N-[4-(trifluoromethyl)phenyl]acetamide] |
| 39.8 to 100 | 15.8 to 39.8 | COc1nc2c(cc1C)N(CC(=O)Nc1ccc(C(F)(F)F)cc1)C(=O)C(C)c1ncccc1-2 (stereo not drawn) [#109, 2-(4-methoxy-5,10-dimethyl-9-oxo-3,8,12-triazatricyclo[9.4.0.0^2,7]pentadeca-1(11),2,4,6,12,14-hexaen-8-yl)-N-[4-(trifluoromethyl)phenyl]acetamide] |
| 100 to 501 | 39.8 to 100 | Cc1cc2c(c(F)n1)-c1ccnn1C(C)C(=O)N2CC(=O)Nc1ccc(C(F)(F)F)cc1 (stereo not drawn) [#111, 2-(14-fluoro-7,12-dimethyl-8-oxo-5,6,9,13-tetrazatricyclo[8.4.0.0^2,6]tetradeca-1(10),2,4,11,13-pentaen-9-yl)-N-[4-(trifluoromethyl)phenyl]acetamide] |
| 39.8 to 100 | < 15.8 | Cc1cc2c(c(F)n1)-c1cncnc1C(C)C(=O)N2CC(=O)Nc1ccc(C(F)(F)F)cc1 (stereo not drawn) [#112, 2-(15-fluoro-8,13-dimethyl-9-oxo-4,6,10,14-tetrazatricyclo[9.4.0.0^2,7]pentadeca-1(15),2(7),3,5,11,13-hexaen-10-yl)-N-[4-(trifluoromethyl)phenyl]acetamide] |
| 39.8 to 100 | < 15.8 | COc1nc(F)cc2c1-c1cccnc1CC(=O)N2CC(=O)Nc1ccc(C(F)(F)F)cc1 [#113, 2-(5-fluoro-3-methoxy-9-oxo-4,8,12-triazatricyclo[9.4.0.0^2,7]pentadeca-1(11),2,4,6,12,14-hexaen-8-yl)-N-[4-(trifluoromethyl)phenyl]acetamide] |
| 15.8 to 39.8 | < 15.8 | Cc1cc2c(c(Cl)n1)-c1cccnc1C(C)C(=O)N2CC(=O)Nc1ccc(C(F)(F)F)cc1 (stereo not drawn) [#114, 2-(3-chloro-5,10-dimethyl-9-oxo-4,8,12-triazatricyclo[9.4.0.0^2,7]pentadeca-1(11),2,4,6,12,14-hexaen-8-yl)-N-[4-(trifluoromethyl)phenyl]acetamide] |
| 100 to 501 | 39.8 to 100 | Cc1cc2c(c(Cl)n1)-c1cccnc1C(C)C(=O)N2CC(=O)Nc1ccc(C#N)cc1 (stereo not drawn) [#115, 2-(3-chloro-5,10-dimethyl-9-oxo-4,8,12-triazatricyclo[9.4.0.0^2,7]pentadeca-1(11),2,4,6,12,14-hexaen-8-yl)-N-(4-cyanophenyl)acetamide] |
| 15.8 to 39.8 | 15.8 to 39.8 | Cc1cc2c(n(C)c1=O)-c1cccnc1C(C)C(=O)N2CC(=O)Nc1ccc(C(F)(F)F)cc1 (stereo not drawn) [#119, N-[4-(trifluoromethyl)phenyl]-2-(3,5,10-trimethyl-4,9-dioxo-3,8,12-triazatricyclo[9.4.0.0^2,7]pentadeca-1(11),2(7),5,12,14-pentaen-8-yl)acetamide] |
| 15.8 to 39.8 | < 15.8 | Cc1ccc(NC(=O)CN2C(=O)C(C)c3ccccc3-c3c2cc(C)c(=O)n3C)cc1F (stereo not drawn) [#120, N-(3-fluoro-4-methyl-phenyl)-2-(1,3,7-trimethyl-2,6-dioxo-7H-pyrido[3,2-d][3]benzazepin-5-yl)acetamide] |
| 39.8 to 100 | 15.8 to 39.8 | COc1cc2c(c(F)n1)-c1cccnc1CC(=O)N2CC(=O)Nc1ccc(C(F)(F)F)cc1 [#124, 2-(3-fluoro-5-methoxy-9-oxo-4,8,12-triazatricyclo[9.4.0.0^2,7]pentadeca-1(11),2,4,6,12,14-hexaen-8-yl)-N-[4-(trifluoromethyl)phenyl]acetamide] |
| 39.8 to 100 | 39.8 to 100 | CCn1c(C)cc2c(c1=O)-c1cccnc1CC(=O)N2CC(=O)Nc1ccc(C(F)(F)F)cc1 [#125, 2-(4-ethyl-5-methyl-3,9-dioxo-4,8,12-triazatricyclo[9.4.0.0^2,7]pentadeca-1(15),2(7),5,11,13-pentaen-8-yl)-N-[4-(trifluoromethyl)phenyl]acetamide] |
| 15.8 to 39.8 | < 15.8 | Cc1cc2c(c(Cl)n1)-c1cccnc1N(C)C(=O)N2CC(=O)Nc1ccc(C(F)(F)F)cc1 [#126, 2-(3-chloro-5,10-dimethyl-9-oxo-4,8,10,12-tetrazatricyclo[9.4.0.0^2,7]pentadeca-1(11),2,4,6,12,14-hexaen-8-yl)-N-[4-(trifluoromethyl)phenyl]acetamide] |
